According to US20220370464A1, “COMPOSITIONS AND METHODS OF TREATING OR PREVENTING OCULAR INFECTIONS WITH FILOCICLOVIR” (Microbiotix, Inc., priority 2019, published 2022):
Read-outs that look alike come from different tables or passages of the source.

Legend:
AdV4 = test: Plaque reduction antiviral IC50 assay in A549, AdV4; assay type: cell-based, adenovirus 4; details: Human mastadenovirus E
Protocol: (§1) The effectiveness of filociclovir to inhibit a number of adenovirus strains associated with conjunctivitis were tested in an in vitro assay. To determine the in vitro IC50 concentrations, i.e., the concentration of filociclovir that inhibits adenovirus plaque formation by 50%, filociclovir and cidofovir (CDV) were tested against a panel of 7 ocular types of adenovirus.
(§2) 42 A549 24-well multiplates (1 per each drug and each virus strain) were prepared. 7 adenovirus serotypes were tested at a time. Virus dilutions from known titer of stock viruses (approx. 100 PFU/0.1 ml) were prepared with AdV3 L, AdV4 H, AdV5 M, AdV7a J, AdV8 E, AdV 19/64 K, and AdV37 ATCC. 0.1 ml (containing approx. 100 PFU) of each of the 7 viruses were plated onto all 24 wells of an A549 multiplate and incubated at 37° C. in a 5% CO2 water-vapor atmosphere for 3 hours.
(§3) Dilutions of filociclovir and cidofovir were prepared at 400, 40, 4.0, 0.4, 0.04, and 0.004 μM in 2× nutrient tissue culture media, following the dilution protocol: 7.5 ml of each of filociclovir and cidofovir dilution was added to a tube and 22.5 ml of methylcellulose in outgrowth medium (OG) was then added to each tube. 1 ml of each filociclovir and cidofovir dilutions was added to an additional 15 ml tube and 3 ml of OG was added to each tube. This was the overlay for the Adv8 plates. Normal methylcellulose overlay medium without any drug was used for the control wells for each plate.
(§4) For each virus plate, 3 wells were overlaid with each of the 6 final filociclovir and cidofovir concentrations (100, 10, 1.0, 0.1, 0.01, and 0.001 μM) and 6 wells with the control media. Plates were incubated at 37° C. in a 5% CO2 water-vapor atmosphere until plaques were visible. When plaques became visible, plates were stained with gentian violet and plaques were counted at 25λ using a dissecting microscope. The IC50 concentrations were determined from Fitted Line Plot regression analysis using Minitab. All assays were performed in triplicate.

AdV37 = test: Plaque reduction antiviral IC50 assay in A549, AdV37; assay type: cell-based, adenovirus 37; details: unidentified adenovirus
Protocol: as §1, §2, §3, §4

AdV3 = test: Plaque reduction antiviral IC50 assay in A549, AdV3; assay type: cell-based, adenovirus 3; details: Human mastadenovirus B
Protocol: as §1, §2, §3, §4

AdV6 = test: Therapeutic efficacy against intravenous AdV6 in immunosuppressed male Syrian hamsters; details: for serum transaminase (ALT) levels (FIG. 7) / virus burden in the liver (FIG. 8): 5 days post challenge; for mortality / survival (FIG. 6A): AdV6-infected hamsters
Protocol: Four dose levels were tested: 10, 30, 60 and 100 mg/kg p.o. q.d. The highest dose was determined based on rat toxicology data.
All hamsters were immunosuppressed using cyclophosphamide (CP). CP was administered intraperitoneally at a dose of 140 mg/kg, and then twice weekly at a dose of 100 mg/kg.
Filociclovir, in powdered form, was suspended in 0.4% carboxymethyl cellulose (Sigma C5678, Lot #SLBS7273) at 1, 3, 6, and 10 mg/ml and sonicated to visual homogeneity and aliquots stored at 4° C. Aliquots were allowed to equilibrate to room temperature before dosing. Hamsters weighing approximately 100 g were dosed with a 1 ml volume of the appropriate suspension for the 10, 30, 60, and 100 mg/kg dose levels.
The hamsters were divided into 8 groups, 15 hamsters/group, (with the exception of Group 2, which had only 5 hamsters; see Table 3), immunosuppressed, and then injected i.v. with vehicle (Groups 1-2) or 2×10^10 PFU/kg of AdV6 (Groups […]). Groups 1 and 3 received drug vehicle (p.o. q.d.), Group 4 received 10 mg/kg filociclovir (p.o. q.d.), Group 5 received 30 mg/kg filociclovir (p.o. q.d.), Group 6 received 60 mg/kg filociclovir (p.o. q.d.), Groups 2 and 7 received 100 mg/kg filociclovir (p.o. q.d.), and Group 8 received cidofovir (20 mg/kg, 3 times weekly). For all groups, drug administration started 1 day before challenge, and continued according to the schedule above for the duration of the study.
The body weights and any signs of morbidity of the animals were recorded daily. At 5 days post challenge, 5 hamsters (designated at the start of the experiment) from each group (with the exception of Group 2) were sacrificed, and gross pathological observation was performed. Serum and liver samples were collected and the virus burden in liver was determined by a TCID50 assay, and the serum was analyzed for transaminase levels. The remaining 10 hamsters were sacrificed at 14 days post challenge. Hamsters that became visually moribund before Day 14 were sacrificed as needed. In addition to the hamsters observed to be moribund, all hamsters that lost more than 20% of their original body weight were also sacrificed. For the hamsters sacrificed at the conclusion of the experiment and those sacrificed as moribund, serum and liver tissues were collected and banked for possible determination of serum transaminase levels and virus burden in the liver. Liver tissue was preserved in formalin for possible histopathological examination.
As such, there were two endpoints for the study: One, collected from ten animals, was survival and body weight gain/loss (with the option of assaying virus burden in the liver and serum transaminase levels). The other, collected from 5 animals for the Day 5 time point, was virus burden in the liver and serum transaminase levels.

[1] = system: panel of ocular adenovirus types (Ad3, Ad4, Ad5, Ad7a, Ad8, Ad19/64, and Ad37); test: Plaque reduction antiviral IC50 assay, whole panel of ocular adenovirus types; assay type: cell-based, adenovirus Species B, C, D, and E; details: unidentified adenovirus
Protocol: as §1, §2, §3, §4

[2] = read-out: mean IC50 concentrations across the panel (upper bound)
[3] = read-out: range of mean IC50 concentrations across the panel

Structure (SMILES)	IC50 (AdV4; read-out: Mean IC50)	IC50 (AdV4; read-out: Median IC50)	IC50 (AdV37; read-out: Mean IC50)	IC50 (AdV37; read-out: Median IC50)	IC50 (AdV3; read-out: Mean IC50)	IC50 (AdV3; read-out: Median IC50)	IC50 [1, 2]	IC50 [1, 3]	further results
Nc1ccn(C[C@@H](CO)OCP(=O)(O)O)c(=O)n1 [CDV, cidofovir, reference compound]	8.71 µM	9.43 µM	3.96 µM	0.382 µM	5.78 µM	6.02 µM	< 31 µM	0.487 to 30.3 µM	serum transaminase (ALT) levels (FIG. 7) (AdV6; 20 mg/kg i.p. 3x weekly): none of the filociclovir- or CDV-treated animals had elevated serum transaminase levels; virus burden in the liver (FIG. 8) (AdV6; 20 mg/kg i.p. 3x weekly): very low to nonquantifiable levels
Nc1nc2c(ncn2/C=C2/CC2(CO)CO)c(=O)[nH]1 [Filociclovir, 2-amino-9-{(Z)-[2,2-bis(hydroxymethyl)cyclopropylidene]methyl}-3,9-dihydro-6H-purin-6-one]	4.31 µM	4.24 µM	3.53 µM	4.52 µM	0.778 µM	0.756 µM	< 5 µM	0.496 to 4.68 µM	body weight loss (FIG. 6B) (AdV6; 10 mg/kg p.o. q.d.): reversed; mortality / survival (FIG. 6A) (AdV6; 10 mg/kg p.o. q.d.): prevented mortality; body weight loss (FIG. 6B) (AdV6; 30 mg/kg p.o. q.d.): reversed; mortality / survival (FIG. 6A) (AdV6; 30 mg/kg p.o. q.d.): prevented mortality; toxicity for AdV6-infected hamsters (AdV6; 60 mg/kg p.o. q.d.): toxic; toxicity for AdV6-infected hamsters (AdV6; 100 mg/kg p.o. q.d.): toxic; virus burden in the liver (FIG. 8) (AdV6; 10 mg/kg p.o. q.d.): one animal in the AdV6+10 mg/kg filociclovir group with a very low liver virus burden; virus burden in the liver (FIG. 8) (AdV6; 30 mg/kg p.o. q.d.): nondetectable level; serum transaminase (ALT) levels (FIG. 7) (AdV6; filociclovir-treated animals): none of the filociclovir- or CDV-treated animals had elevated serum transaminase levels; necropsy finding at day 5 sacrifice (AdV6; AdV6+60 mg/kg p.o. q.d.): extensive kidney pathology; necropsy finding at day 5 sacrifice (AdV6; AdV6+100 mg/kg p.o. q.d.): extensive kidney pathology
